Values of other authors in patent US5550110A, “Endothelin Antagonists II” (Warner-Lambert Company, priority 1994, dated 1996).
Ends that are not written are not given here. Peptide text beside a SMILES is read from it.

Key:
[1] = test system: vasoconstriction after subarachnoid hemorrhage; conditions: cited from earlier work
[2] = test system: glomerular injury; conditions: intraperitoneal, rats; cited from earlier work
[3] = test system: vasoconstriction of the basilar artery; conditions: intracisternal, canine subarachnoid hemorrhage model; cited from earlier work
[4] = test system: ET-1 induced arrhythmia; conditions: rats; cited from earlier work
[5] = test system: renal vasoconstriction after renal ischemia; conditions: anesthetized rats; cited from earlier work
[6] = test system: blood pressure; conditions: orally administered; cited from earlier work
[7] = test system: cerebral vasoconstriction after subarachnoid hemorrhage; conditions: rats; cited from earlier work
[8] = test system: ET-1 induced bronchoconstriction and tracheal smooth muscle contraction; conditions: allergic sheep; cited from earlier work
[9] = test system: endotoxic shock; conditions: mouse endotoxic shock; cited from earlier work
[10] = test system: ET-1 induced pressor response; conditions: conscious rats; cited from earlier work
[11] = test system: acute CsA toxicity; conditions: rat model; cited from earlier work
[12] = test system: ET-1 induced vasoconstriction; conditions: i.v.; cited from earlier work
[13] = test system: blood pressure; conditions: intravenous infusion, stroke prone spontaneous hypertensive rats; cited from earlier work
[14] = test system: acute hypoxia induced pulmonary hypertension; conditions: in vivo; cited from earlier work
[15] = test system: ischemic acute renal failure; conditions: i.v., cited from earlier work
[16] = test system: renal vascular resistance; conditions: i.v.; cited from earlier work
[17] = test system: ET receptor; conditions: cited from earlier work

For `COc1ccccc1Oc1c(NS(=O)(=O)c2ccc(C(C)(C)C)cc2)nc(-c2ncccn2)nc1OCCO` [Ro 47-0203], the “blood brain barrier passage” value ([1]; inferred from the rabbit subarachnoid hemorrhage model) is listed as “crosses the blood brain barrier” and the reversal of vasoconstriction ([1]; rabbit subarachnoid hemorrhage model) is listed as “effective in a rabbit subarachnoid hemorrhage model in reversing vasoconstriction”.

In the case of FR 139317, the “permeability to proteins, glomerular injury, renal function” value [2] is listed as “reduced abnormal permeability to proteins and limited glomerular injury and prevented renal function deterioration”, the “vasoconstriction of the basilar artery” value [3] is listed as “significantly reduced the vasoconstriction of the basilar artery” and the ET-1 induced arrhythmia [4] is listed as “suppressed”.

For `COc1cccc(Oc2c(NS(=O)(=O)c3ccc(C(C)(C)C)cc3)ncnc2OCCO)c1` [Ro 46-2005], the “renal vasoconstriction after renal ischemia” value [5] is listed as “protective effect”, the antihypertensive effect [6] is listed as “marked antihypertensive effect with a reasonably long duration” and the “cerebral vasoconstriction after subarachnoid hemorrhage” value [7] is listed as “dramatically reduced cerebral vasoconstriction”.

In the case of `CC(C)C[C@@H]1NC(=O)[C@@H](C(C)C)NC(=O)[C@@H]2CCCN2C(=O)[C@@H](CC(=O)O)NC(=O)[C@@H](Cc2c[nH]c3ccccc23)NC1=O` [BQ-123] (HELM PEPTIDE1{L.[dW].[dD].P.[dV]}$PEPTIDE1,PEPTIDE1,1:R1-5:R2$$$V2.0), the “ET-1 induced bronchoconstriction and tracheal smooth muscle contraction” value [8] is given as “block ET-1 induced bronchoconstriction and tracheal smooth muscle contraction”, the survival rate [9] is given as “significantly increased the survival rate” and the “ET-1 induced pressor response” value [10] is given as “effective in antagonizing the ET-1 induced pressor response”. For the same compound, the “acute CsA toxicity” value [11] was “suppressed”, the “ET-1 induced vasoconstriction in rabbit retinal arteries” value [12] was “blocked” and the blood pressure [13] was “decreased blood pressure significantly”. The “prevention of acute hypoxia induced pulmonary hypertension” value [14] was “effective in the prevention of acute hypoxia induced pulmonary hypertension”, the “mitochondrial [Ca2+] accumulation” value ([15]; early phase of ischemic acute renal failure in rats) was “prevents the mitochondrial [Ca^2+ ] accumulation” and the “post-ischemic degeneration of proximal tubular cells” value ([15]; rats) was “protects proximal tubular cells from post-ischemic degeneration”. For the same compound, the “ET-1 induced renal vascular resistance in rats” value [16] was “blocked”.

In the case of “ET[1-20]: ET-1 lacking the C-terminal amino acid Trp-21 (CSCSSLMDKECVYFCHLDII; ends and bridges not checked; cysteine pairing not given here; UniProt P05305 53-72, looked up, fragment)”, the “functional activity relative to ET-1” value [17] is listed as “approximately 1000 fold less”.
